Test results published in PubChem BioAssay AID256 (DTP/NCI, 2004).
“And” between values parts separate entries of the source, which are not always exact repeats. Equal entries are not always repeated. Inconclusive results and toxic doses are left out.

Test system: CD2F1 mice, L1210 leukemia ip, survival T/C
Experiment: NCI In Vivo Anticancer Drug Screen. Data for tumor model L1210 Leukemia (intraperitoneal) in CD2F1 (CDF1) mice
Details: higher = longer survival
Method in brief: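 Compound-dosed mice with transplantable tumor versus matched vehicle controls; endpoint ratio T/C reported.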

[1] = endpoint: mean survival time, dose: 100.0 mg/kg/injection, schedule: Q01DX001 (ip), vehicle: saline with Tween-80
[2] = endpoint: mean survival time, dose: 200.0 mg/kg/injection, schedule: Q01DX001 (ip), vehicle: saline with Tween-80
[3] = endpoint: mean survival time, dose: 400.0 mg/kg/injection, schedule: Q01DX001 (ip), vehicle: saline with Tween-80
[4] = endpoint: mean survival time, dose: 100.0 mg/kg/injection, schedule: Q04DX003 (ip), vehicle: saline with Tween-80
[5] = endpoint: mean survival time, dose: 200.0 mg/kg/injection, schedule: Q04DX003 (ip), vehicle: saline with Tween-80
[6] = endpoint: mean survival time, dose: 400.0 mg/kg/injection, schedule: Q04DX003 (ip), vehicle: saline with Tween-80
[7] = endpoint: mean survival time, dose: 100.0 mg/kg/injection, schedule: Q01DX009 (ip), vehicle: saline with Tween-80
[8] = endpoint: mean survival time, dose: 200.0 mg/kg/injection, schedule: Q01DX009 (ip), vehicle: saline with Tween-80
[9] = endpoint: mean survival time, dose: 400.0 mg/kg/injection, schedule: Q01DX009 (ip), vehicle: saline with Tween-80
[10] = endpoint: mean survival time, dose: 75.0 mg/kg/injection, schedule: Q01DX001 (ip), vehicle: saline
[11] = endpoint: mean survival time, dose: 50.0 mg/kg/injection, schedule: Q01DX009 (ip), vehicle: saline with Tween-80
[12] = endpoint: mean survival time, dose: 100.0 mg/kg/injection, schedule: Q04DX002 (ip), vehicle: saline
[13] = endpoint: mean survival time, dose: 10.0 mg/kg/injection, schedule: Q01DX009 (ip), vehicle: saline
[14] = endpoint: mean survival time, dose: 20.0 mg/kg/injection, schedule: Q01DX009 (ip), vehicle: saline

SMILES: OCC#CCOCC(O)CCl (configuration not stated)
- T/C (endpoint: mean survival time, dose: 25.0 mg/kg/injection, schedule: Q01DX009 (ip), vehicle: water): 107 % of control
- T/C (endpoint: mean survival time, dose: 50.0 mg/kg/injection, schedule: Q01DX009 (ip), vehicle: water): 98 % of control
- T/C (endpoint: mean survival time, dose: 100.0 mg/kg/injection, schedule: Q01DX009 (ip), vehicle: water): 104 % of control
- T/C (endpoint: mean survival time, dose: 200.0 mg/kg/injection, schedule: Q01DX009 (ip), vehicle: water): 97 % of control

SMILES: CN(C)c1nc(F)nc2c1ncn2C1OC(CO)C(O)C1O (configuration not stated)
- T/C (endpoint: mean survival time, dose: 75.0 mg/kg/injection, schedule: Q01DX001 (ip), vehicle: other): 100 % of control
- T/C (endpoint: mean survival time, dose: 150.0 mg/kg/injection, schedule: Q01DX001 (ip), vehicle: other): 109 % of control
- T/C (endpoint: mean survival time, dose: 300.0 mg/kg/injection, schedule: Q01DX001 (ip), vehicle: other): 109 % of control

SMILES: O=S(=O)(O)c1cc(O)ccc1O.O=S(=O)(O)c1cc(O)ccc1O.[NH-]C1CCCCC1[NH-].[Pt+2]
- T/C (endpoint: median survival time, dose: 6.25 mg/kg/injection, schedule: Q04DX003 (ip), vehicle: saline): 117 % of control
- T/C (endpoint: median survival time, dose: 12.5 mg/kg/injection, schedule: Q04DX003 (ip), vehicle: saline): 123 % of control
- T/C (endpoint: median survival time, dose: 25.0 mg/kg/injection, schedule: Q04DX003 (ip), vehicle: saline): 162 % of control
- T/C (endpoint: median survival time, dose: 50.0 mg/kg/injection, schedule: Q04DX003 (ip), vehicle: saline): 150 % of control and 337 % of control
- T/C (endpoint: median survival time, dose: 100.0 mg/kg/injection, schedule: Q04DX003 (ip), vehicle: saline): 235 % of control and 375 % of control

SMILES: CCOC(=O)C[n+]1ccc(C(=O)c2cc3ccccc3[nH]2)cc1
- T/C [1]: 97 % of control
- T/C [2]: 101 % of control
- T/C [3]: 93 % of control

SMILES: CCOC(=O)CC(C)(O)Cc1ccccc1 (configuration not stated)
- T/C (endpoint: mean survival time, dose: 100.0 mg/kg/injection, schedule: Q04DX003 (ip), vehicle: acetone): 96 % of control
- T/C (endpoint: mean survival time, dose: 200.0 mg/kg/injection, schedule: Q04DX003 (ip), vehicle: acetone): 87 % of control
- T/C (endpoint: mean survival time, dose: 400.0 mg/kg/injection, schedule: Q04DX003 (ip), vehicle: acetone): 102 % of control

SMILES: Cc1[nH]c(=O)[nH]c(=O)c1-n1nnc2ccccc2c1=O
- T/C [4]: 97 % of control
- T/C [5]: 97 % of control
- T/C [6]: 95 % of control

SMILES: CCN1CCS/C1=C\C=C\C1=[N+](CC)CCS1
- T/C (endpoint: mean survival time, dose: 1.25 mg/kg/injection, schedule: Q01DX001 (ip), vehicle: other): 98 % of control
- T/C (endpoint: mean survival time, dose: 2.5 mg/kg/injection, schedule: Q01DX001 (ip), vehicle: other): 101 % of control

SMILES: CSc1ccc(SC)nn1
- T/C [7]: 102 % of control
- T/C [8]: 96 % of control
- T/C [9]: 91 % of control

SMILES: N#CC(=C1CCCCC1)c1ccccc1
- T/C [10]: 98 % of control
- T/C (endpoint: mean survival time, dose: 150.0 mg/kg/injection, schedule: Q01DX001 (ip), vehicle: saline): 104 % of control
- T/C (endpoint: mean survival time, dose: 300.0 mg/kg/injection, schedule: Q01DX001 (ip), vehicle: saline): 96 % of control

SMILES: Nc1[nH]c(=O)[nH]c(=O)c1N
- T/C [11]: 93 % of control
- T/C [7]: 93 % of control
- T/C [12]: 97 % of control
- T/C [4]: 108 % of control
- T/C [8]: 93 % of control
- T/C (endpoint: mean survival time, dose: 200.0 mg/kg/injection, schedule: Q04DX002 (ip), vehicle: saline): 97 % of control
- T/C [5]: 108 % of control

SMILES: O=C(O)c1ccc2c(c1Cl)C(=O)c1ccccc1C2=O
- T/C [11]: 100 % of control
- T/C [7]: 103 % of control
- T/C [8]: 100 % of control

SMILES: OCC1OC([Se])C(O)C(O)C1O.[CH3][Sb][CH3] (configuration not stated)
- T/C (endpoint: mean survival time, dose: 50.0 mg/kg/injection, schedule: Q01DX009 (ip), vehicle: Klucel (hydroxypropylcellulose) (HPC)): 88 % of control

SMILES: CC(C)CC(NC(=O)c1ccccc1)C(=O)O (configuration not stated)
- T/C [4]: 95 % of control
- T/C [5]: 95 % of control
- T/C [6]: 101 % of control

SMILES: Cc1occc1S(N)(=O)=O
- T/C (endpoint: mean survival time, dose: 75.0 mg/kg/injection, schedule: Q04DX002 (ip), vehicle: saline with Tween-80): 120 % of control

SMILES: COc1cccc(OC)c1C1=CCCCCC1
- T/C [1]: 96 % of control
- T/C [7]: 101 % of control
- T/C [2]: 98 % of control
- T/C [8]: 97 % of control
- T/C [3]: 93 % of control
- T/C [9]: 104 % of control

SMILES: C1CCC(CCC2CCCC[N-]2)[N-]C1.C1CCC(CCC2CCCC[N-]2)[N-]C1.[Ni+2].[O-][Cl+3]([O-])([O-])O (configuration not stated)
- T/C (endpoint: mean survival time, dose: 5.0 mg/kg/injection, schedule: Q01DX009 (ip), vehicle: saline): 103 % of control
- T/C [13]: 104 % of control
- T/C (endpoint: mean survival time, dose: 12.5 mg/kg/injection, schedule: Q01DX001 (ip), vehicle: saline with Tween-80): 90 % of control
- T/C (endpoint: mean survival time, dose: 12.5 mg/kg/injection, schedule: Q04DX002 (ip), vehicle: saline): 95 % of control
- T/C (endpoint: mean survival time, dose: 12.5 mg/kg/injection, schedule: Q04DX003 (ip), vehicle: saline): 104 % of control
- T/C [14]: 103 % of control
- T/C (endpoint: mean survival time, dose: 25.0 mg/kg/injection, schedule: Q01DX001 (ip), vehicle: saline): 102 % of control
- T/C (endpoint: mean survival time, dose: 25.0 mg/kg/injection, schedule: Q04DX002 (ip), vehicle: saline): 98 % of control
- T/C (endpoint: mean survival time, dose: 25.0 mg/kg/injection, schedule: Q04DX003 (ip), vehicle: saline): 108 % of control
- T/C (endpoint: mean survival time, dose: 40.0 mg/kg/injection, schedule: Q01DX009 (ip), vehicle: saline): 109 % of control
- T/C (endpoint: mean survival time, dose: 50.0 mg/kg/injection, schedule: Q01DX001 (ip), vehicle: saline): 102 % of control
- T/C (endpoint: mean survival time, dose: 50.0 mg/kg/injection, schedule: Q04DX002 (ip), vehicle: saline): 98 % of control
- T/C (endpoint: mean survival time, dose: 50.0 mg/kg/injection, schedule: Q04DX003 (ip), vehicle: saline): 102 % of control
- T/C [10]: 101 % of control
- T/C (endpoint: mean survival time, dose: 100.0 mg/kg/injection, schedule: Q01DX001 (ip), vehicle: saline): 102 % of control
- T/C [12]: 102 % of control
- T/C (endpoint: mean survival time, dose: 100.0 mg/kg/injection, schedule: Q04DX003 (ip), vehicle: saline): 104 % of control

SMILES: Cc1ccc(S(=O)(=O)O/N=C2/CCSc3ccccc32)cc1
- T/C (endpoint: mean survival time, dose: 100.0 mg/kg/injection, schedule: Q01DX001 (ip), vehicle: acetone): 100 % of control
- T/C (endpoint: mean survival time, dose: 200.0 mg/kg/injection, schedule: Q01DX001 (ip), vehicle: acetone): 97 % of control
- T/C (endpoint: mean survival time, dose: 400.0 mg/kg/injection, schedule: Q01DX001 (ip), vehicle: acetone): 97 % of control

SMILES: CCOC(=O)Nc1cc(NCc2ccccc2)c(N)c(N)n1
- T/C [1]: 103 % of control
- T/C [2]: 103 % of control

SMILES: O=C1c2ccccc2C(=O)c2c(O)c(CCCN3C(=O)c4ccccc4C3=O)cc(O)c21
- T/C (endpoint: mean survival time, dose: 12.5 mg/kg/injection, schedule: Q01DX009 (ip), vehicle: other): 89 % of control
- T/C (endpoint: mean survival time, dose: 25.0 mg/kg/injection, schedule: Q01DX009 (ip), vehicle: other): 87 % of control
- T/C (endpoint: mean survival time, dose: 50.0 mg/kg/injection, schedule: Q01DX009 (ip), vehicle: other): 87 % of control
- T/C (endpoint: mean survival time, dose: 100.0 mg/kg/injection, schedule: Q01DX009 (ip), vehicle: other): 89 % of control
- T/C (endpoint: mean survival time, dose: 200.0 mg/kg/injection, schedule: Q01DX009 (ip), vehicle: other): 97 % of control

SMILES: NC1CC(=O)C(CC2C(=O)CC(N)CC2=O)C(=O)C1 (configuration not stated)
- T/C [4]: 102 % of control
- T/C [5]: 101 % of control
- T/C [6]: 98 % of control

SMILES: N#CCC(O)(/C=C/c1ccccc1)c1ccccc1 (configuration not stated)
- T/C [7]: 95 % of control
- T/C [4]: 97 % of control
- T/C [8]: 91 % of control
- T/C [9]: 89 % of control
- T/C [6]: 88 % of control

SMILES: CC(=O)c1ccc(-c2ccccc2)cc1
- T/C (endpoint: mean survival time, dose: 100.0 mg/kg/injection, schedule: Q04DX003 (ip), vehicle: Klucel (hydroxypropylcellulose) (HPC)): 102 % of control
- T/C (endpoint: mean survival time, dose: 200.0 mg/kg/injection, schedule: Q04DX003 (ip), vehicle: Klucel (hydroxypropylcellulose) (HPC)): 103 % of control
- T/C (endpoint: mean survival time, dose: 400.0 mg/kg/injection, schedule: Q04DX003 (ip), vehicle: Klucel (hydroxypropylcellulose) (HPC)): 102 % of control

SMILES: c1ccc(OCCC[P+](c2ccccc2)(c2ccccc2)c2ccccc2)cc1
- T/C [13]: 105 % of control
- T/C [14]: 95 % of control
- T/C (endpoint: mean survival time, dose: 25.0 mg/kg/injection, schedule: Q01DX009 (ip), vehicle: saline with Tween-80): 95 % of control
- T/C (endpoint: mean survival time, dose: 25.0 mg/kg/injection, schedule: Q04DX003 (ip), vehicle: saline with Tween-80): 101 % of control
- T/C [11]: 113 % of control
- T/C (endpoint: mean survival time, dose: 50.0 mg/kg/injection, schedule: Q04DX003 (ip), vehicle: saline with Tween-80): 92 % of control
- T/C [7]: 111 % of control
- T/C [4]: 92 % of control

SMILES: CCCCCCCCCCCCCCCC[n+]1ccccc1
- T/C (endpoint: mean survival time, dose: 0.78 mg/kg/injection, schedule: Q01DX009 (ip), vehicle: saline): 112 % of control
- T/C (endpoint: mean survival time, dose: 1.56 mg/kg/injection, schedule: Q01DX009 (ip), vehicle: saline): 120 % of control
- T/C (endpoint: mean survival time, dose: 3.13 mg/kg/injection, schedule: Q01DX009 (ip), vehicle: saline): 120 % of control

SMILES: Cc1ccc([N+](=O)[O-])cc1C#N
- T/C [4]: 105 % of control
- T/C [5]: 105 % of control
- T/C [6]: 113 % of control
